{"source": "patent US5480649A", "about": "“Procaterol-containing preparation for application to the skin” (Teikoku Seiaku Kabushiki Kaisha, priority 1990, dated 1996)", "origin": "cited, not measured here", "tested_on": "β-receptor of sympathetic nerves", "conditions": "background statement"}
{"smiles": "CCC(NC(C)C)C(O)c1ccc(O)c2[nH]c(=O)ccc12", "note": "(centres unmarked) [procaterol]", "values": [{"measurement": "bronchodilating activity", "value": "strong bronchodilating activity in very small amounts"}, {"measurement": "duration of the activity", "value": "≥ 8", "unit": "h"}]}
